Measurements taken from ChEMBL document CHEMBL3414430 (J Med Chem, 2015).
≈ marks a conversion by molar mass, not a printed value. Blank lines part the entries; values can stand above or below the compound they belong to. Calls of active or inactive are those of the source. The calls are words filed in the database; no cut-off is given here.

What was measured:
[1] = Solubility of the compound in PBS measured after overnight incubation by LYSA assay; assay type: physicochemical
[2] = Intrinsic clearance in human liver microsomes at 1 uM preincubated for 10 mins followed by NADPH addition measured over 30 mins by LC-MS/MS analysis; assay type: ADME; conditions: read-out: CLH
[3] = Intrinsic clearance in mouse liver microsomes at 1 uM preincubated for 10 mins followed by NADPH addition measured over 30 mins by LC-MS/MS analysis; assay type: ADME; conditions: read-out: CLH
[4] = Plasma clearance in ICR mouse; assay type: ADME, organism-based
Mus musculus [5] = test: AUC (0 to infinity) in ICR mouse at 25 mg/kg, iv; assay type: ADME, organism-based, Plasma; set-up: time infinity, dose 25 mg/kg, route intravenous; conditions: in vivo
Mus musculus [6] = test: AUC (0 to infinity) in ICR mouse at 50 mg/kg, po; assay type: ADME, organism-based, Plasma; set-up: time infinity, dose 50 mg/kg, route oral; conditions: in vivo
[7] = Oral bioavailability in ICR mouse at 50 mg/kg; assay type: ADME, organism-based; conditions: in vivo
[8] = Half life in ICR mouse at 25 mg/kg, iv; assay type: ADME, organism-based; set-up: dose 25 mg/kg, route intravenous; conditions: in vivo
[9] = Cmax in ICR mouse at 50 mg/kg, po; assay type: ADME, organism-based; set-up: dose 50 mg/kg, route oral; conditions: in vivo
Histone deacetylase 1 = Histone deacetylase 1 (Homo sapiens, UniProt Q13547)
Chain of Histone deacetylase 1 (Q13547 whole entry): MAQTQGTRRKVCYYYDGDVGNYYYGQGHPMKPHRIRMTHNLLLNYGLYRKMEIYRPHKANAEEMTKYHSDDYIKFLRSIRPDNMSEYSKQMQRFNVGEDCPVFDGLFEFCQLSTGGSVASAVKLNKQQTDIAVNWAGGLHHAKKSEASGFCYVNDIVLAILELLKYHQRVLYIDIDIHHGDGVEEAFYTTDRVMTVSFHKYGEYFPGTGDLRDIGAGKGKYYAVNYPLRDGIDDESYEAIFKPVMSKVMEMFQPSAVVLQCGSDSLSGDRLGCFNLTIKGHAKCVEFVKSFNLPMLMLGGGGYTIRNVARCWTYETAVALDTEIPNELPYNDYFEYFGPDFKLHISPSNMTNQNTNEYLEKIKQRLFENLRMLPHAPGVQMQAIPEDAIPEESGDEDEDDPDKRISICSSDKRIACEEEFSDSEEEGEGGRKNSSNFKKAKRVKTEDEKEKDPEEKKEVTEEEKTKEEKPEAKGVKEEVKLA
Description: Inhibition of HDAC1 (unknown origin) using RHKK(Ac)AMC as substrate

[10] = target: T1, Protein deacetylase HDAC6 (Homo sapiens, UniProt Q9UBN7)
T1 sequence (Q9UBN7 whole entry): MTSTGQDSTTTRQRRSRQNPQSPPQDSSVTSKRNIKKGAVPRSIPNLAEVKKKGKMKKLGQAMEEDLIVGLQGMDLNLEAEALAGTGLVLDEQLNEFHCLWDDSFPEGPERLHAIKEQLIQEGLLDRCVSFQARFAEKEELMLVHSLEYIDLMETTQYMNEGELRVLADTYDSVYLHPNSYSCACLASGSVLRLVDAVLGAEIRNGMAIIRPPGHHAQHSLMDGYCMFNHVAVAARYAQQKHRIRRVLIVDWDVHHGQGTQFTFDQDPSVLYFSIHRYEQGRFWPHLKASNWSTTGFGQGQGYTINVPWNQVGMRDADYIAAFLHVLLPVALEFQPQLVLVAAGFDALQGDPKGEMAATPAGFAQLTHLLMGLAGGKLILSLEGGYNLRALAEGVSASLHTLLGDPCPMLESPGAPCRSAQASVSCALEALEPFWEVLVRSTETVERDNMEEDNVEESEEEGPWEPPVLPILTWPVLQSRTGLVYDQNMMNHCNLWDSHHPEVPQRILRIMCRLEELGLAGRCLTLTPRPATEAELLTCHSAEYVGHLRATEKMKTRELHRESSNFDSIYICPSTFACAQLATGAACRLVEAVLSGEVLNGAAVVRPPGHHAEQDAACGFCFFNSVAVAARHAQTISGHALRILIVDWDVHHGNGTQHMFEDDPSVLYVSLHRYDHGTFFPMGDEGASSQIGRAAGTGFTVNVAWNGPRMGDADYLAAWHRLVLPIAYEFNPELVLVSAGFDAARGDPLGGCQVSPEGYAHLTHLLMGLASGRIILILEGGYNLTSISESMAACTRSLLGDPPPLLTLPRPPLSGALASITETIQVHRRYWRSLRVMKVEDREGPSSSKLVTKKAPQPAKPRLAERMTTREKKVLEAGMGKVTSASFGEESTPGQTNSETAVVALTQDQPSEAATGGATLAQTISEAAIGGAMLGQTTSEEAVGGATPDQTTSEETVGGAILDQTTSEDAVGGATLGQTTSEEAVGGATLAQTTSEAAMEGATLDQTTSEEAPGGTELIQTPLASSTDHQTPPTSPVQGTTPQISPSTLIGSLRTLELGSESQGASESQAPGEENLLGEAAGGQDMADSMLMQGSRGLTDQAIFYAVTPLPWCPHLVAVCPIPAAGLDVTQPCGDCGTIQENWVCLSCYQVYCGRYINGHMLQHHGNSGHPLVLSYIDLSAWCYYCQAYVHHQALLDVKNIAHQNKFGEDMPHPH
Description: Inhibition of HDAC6 (unknown origin) using RHKK(Ac)AMC as substrate

Histone deacetylase 8 = target: T2, Histone deacetylase 8 (Homo sapiens, UniProt Q9BY41)
T2 sequence (Q9BY41 whole entry): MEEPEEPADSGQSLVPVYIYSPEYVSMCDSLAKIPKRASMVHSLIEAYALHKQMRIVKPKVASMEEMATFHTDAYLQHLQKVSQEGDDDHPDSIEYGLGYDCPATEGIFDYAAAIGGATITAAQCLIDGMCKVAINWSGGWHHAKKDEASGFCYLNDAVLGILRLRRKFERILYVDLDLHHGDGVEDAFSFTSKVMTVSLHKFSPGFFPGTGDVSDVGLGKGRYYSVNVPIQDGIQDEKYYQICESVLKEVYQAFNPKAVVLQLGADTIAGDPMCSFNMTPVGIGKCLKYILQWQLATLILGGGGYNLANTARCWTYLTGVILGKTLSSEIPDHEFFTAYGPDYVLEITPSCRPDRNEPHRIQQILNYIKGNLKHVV
Description: Inhibition of HDAC8 (unknown origin) using RHK(Ac)K(Ac)AMC as substrate

[11] = target: Histone deacetylase 1/2/3/6 (Homo sapiens) (UniProt Q13547+O15379+Q9UBN7+Q92769); conditions: HeLa, at 10 µM
Chain of Histone deacetylase 1/2/3/6 (Homo sapiens) (O15379 whole entry, looked up, one chain of several): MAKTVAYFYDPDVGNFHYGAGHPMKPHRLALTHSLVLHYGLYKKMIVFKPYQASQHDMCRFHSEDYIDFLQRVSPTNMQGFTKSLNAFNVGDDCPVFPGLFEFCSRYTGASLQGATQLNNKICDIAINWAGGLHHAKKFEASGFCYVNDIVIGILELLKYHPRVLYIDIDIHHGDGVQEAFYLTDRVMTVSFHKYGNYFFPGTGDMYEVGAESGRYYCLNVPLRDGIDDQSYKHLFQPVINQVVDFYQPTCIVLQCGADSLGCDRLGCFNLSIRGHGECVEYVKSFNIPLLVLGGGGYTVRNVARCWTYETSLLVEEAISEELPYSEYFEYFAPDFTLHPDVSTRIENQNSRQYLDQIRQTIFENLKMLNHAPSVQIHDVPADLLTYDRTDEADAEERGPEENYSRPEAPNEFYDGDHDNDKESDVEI
Chain of Histone deacetylase 1/2/3/6 (Homo sapiens) (Q13547 whole entry, looked up, one chain of several): as the sequence (Q13547 whole entry) above
Chain of Histone deacetylase 1/2/3/6 (Homo sapiens) (Q92769 whole entry, looked up, one chain of several): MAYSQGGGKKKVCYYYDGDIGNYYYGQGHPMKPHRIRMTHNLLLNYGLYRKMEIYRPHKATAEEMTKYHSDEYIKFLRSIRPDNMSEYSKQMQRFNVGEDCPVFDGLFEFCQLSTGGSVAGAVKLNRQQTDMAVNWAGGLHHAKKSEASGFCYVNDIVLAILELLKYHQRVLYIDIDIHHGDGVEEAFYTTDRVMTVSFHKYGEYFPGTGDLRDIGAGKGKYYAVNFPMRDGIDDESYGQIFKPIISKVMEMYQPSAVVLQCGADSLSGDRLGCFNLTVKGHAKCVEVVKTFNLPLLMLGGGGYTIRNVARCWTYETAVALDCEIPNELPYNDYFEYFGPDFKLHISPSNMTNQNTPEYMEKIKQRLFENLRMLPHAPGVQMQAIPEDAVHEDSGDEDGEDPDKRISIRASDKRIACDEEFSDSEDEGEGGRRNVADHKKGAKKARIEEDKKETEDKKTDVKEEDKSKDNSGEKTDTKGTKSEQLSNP
Description: Inhibition of HDAC1/HDAC2/HDAC3 in human HeLa cells assessed as induction of p21 gene expression at 10 uM after 15 hrs by luciferase reporter gene assay relative to HDAC1 inhibitor SNDX-275

Mus musculus [12] = test: AUC (0 to infinity) in ICR mouse at 10 mg/kg, iv; assay type: ADME, organism-based, Plasma; set-up: time infinity, dose 10 mg/kg, route intravenous; conditions: in vivo
[13] = Half life in ICR mouse at 10 mg/kg, iv; assay type: ADME, organism-based; set-up: dose 10 mg/kg, route intravenous; conditions: in vivo
Mus musculus [14] = test: AUC (0 to infinity) in ICR mouse at 100 mg/kg, po; assay type: ADME, organism-based, Plasma; set-up: time infinity, dose 100 mg/kg, route oral; conditions: in vivo
[15] = Oral bioavailability in ICR mouse at 100 mg/kg; assay type: ADME, organism-based; conditions: in vivo
Cytochrome P450 3A4 = Cytochrome P450 3A4 (Homo sapiens, UniProt P08684); test: Inhibition of CYP3A4 in human liver microsomes preincubated for 10 mins followed by NADPH addition measured after 30 mins by LC-MS/MS analysis; assay type: ADME
Chain of Cytochrome P450 3A4 (P08684 whole entry): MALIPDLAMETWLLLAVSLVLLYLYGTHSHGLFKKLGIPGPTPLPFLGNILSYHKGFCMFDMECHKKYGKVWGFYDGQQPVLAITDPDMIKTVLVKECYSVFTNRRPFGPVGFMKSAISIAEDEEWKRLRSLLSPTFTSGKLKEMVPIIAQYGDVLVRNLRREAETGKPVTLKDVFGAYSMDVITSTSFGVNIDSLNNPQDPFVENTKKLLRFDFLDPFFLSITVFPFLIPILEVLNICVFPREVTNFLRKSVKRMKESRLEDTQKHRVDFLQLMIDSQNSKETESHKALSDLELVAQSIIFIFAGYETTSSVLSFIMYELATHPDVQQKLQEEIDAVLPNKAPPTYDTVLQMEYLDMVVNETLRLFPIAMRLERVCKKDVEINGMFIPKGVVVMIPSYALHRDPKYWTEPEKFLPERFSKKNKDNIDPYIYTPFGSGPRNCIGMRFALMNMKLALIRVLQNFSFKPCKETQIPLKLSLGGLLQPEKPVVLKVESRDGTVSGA

Cytochrome P450 2D6 = Cytochrome P450 2D6 (Homo sapiens, UniProt P10635); test: Inhibition of CYP2D6 in human liver microsomes preincubated for 10 mins followed by NADPH addition measured after 30 mins by LC-MS/MS analysis; assay type: ADME
Chain of Cytochrome P450 2D6 (P10635 whole entry): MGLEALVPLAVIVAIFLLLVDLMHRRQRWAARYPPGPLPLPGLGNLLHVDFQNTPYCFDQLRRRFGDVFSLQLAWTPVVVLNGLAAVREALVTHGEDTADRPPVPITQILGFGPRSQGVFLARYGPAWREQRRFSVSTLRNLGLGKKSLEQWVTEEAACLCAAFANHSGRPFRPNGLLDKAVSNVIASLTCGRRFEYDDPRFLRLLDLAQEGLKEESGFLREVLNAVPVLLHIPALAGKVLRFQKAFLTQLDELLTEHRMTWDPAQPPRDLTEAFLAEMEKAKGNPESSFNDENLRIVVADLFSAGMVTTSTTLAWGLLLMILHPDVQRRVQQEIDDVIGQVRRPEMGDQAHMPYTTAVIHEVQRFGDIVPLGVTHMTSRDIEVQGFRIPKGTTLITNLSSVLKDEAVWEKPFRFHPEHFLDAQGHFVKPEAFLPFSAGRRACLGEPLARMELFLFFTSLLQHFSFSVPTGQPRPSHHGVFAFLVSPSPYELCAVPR

Cytochrome P450 2C9 = Cytochrome P450 2C9 (Homo sapiens, UniProt P11712); test: Inhibition of CYP2C9 in human liver microsomes preincubated for 10 mins followed by NADPH addition measured after 30 mins by LC-MS/MS analysis; assay type: ADME
Chain of Cytochrome P450 2C9 (P11712 whole entry): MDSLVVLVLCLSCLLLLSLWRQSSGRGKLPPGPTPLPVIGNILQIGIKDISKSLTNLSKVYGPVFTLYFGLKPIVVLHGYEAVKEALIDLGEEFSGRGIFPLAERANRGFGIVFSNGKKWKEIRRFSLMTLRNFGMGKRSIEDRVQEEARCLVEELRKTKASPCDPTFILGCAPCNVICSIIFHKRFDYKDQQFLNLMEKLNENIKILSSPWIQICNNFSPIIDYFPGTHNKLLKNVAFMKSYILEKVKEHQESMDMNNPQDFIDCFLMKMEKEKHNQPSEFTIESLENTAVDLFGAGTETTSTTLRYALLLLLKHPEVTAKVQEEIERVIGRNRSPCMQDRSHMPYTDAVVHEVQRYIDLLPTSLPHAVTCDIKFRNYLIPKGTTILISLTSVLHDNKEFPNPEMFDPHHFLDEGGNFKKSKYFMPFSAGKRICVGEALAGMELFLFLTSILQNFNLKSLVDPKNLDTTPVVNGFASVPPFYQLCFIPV

Cytochrome P450 2C19 = Cytochrome P450 2C19 (Homo sapiens, UniProt P33261); test: Inhibition of CYP2C19 in human liver microsomes preincubated for 10 mins followed by NADPH addition measured after 30 mins by LC-MS/MS analysis; assay type: ADME
Chain of Cytochrome P450 2C19 (P33261 whole entry): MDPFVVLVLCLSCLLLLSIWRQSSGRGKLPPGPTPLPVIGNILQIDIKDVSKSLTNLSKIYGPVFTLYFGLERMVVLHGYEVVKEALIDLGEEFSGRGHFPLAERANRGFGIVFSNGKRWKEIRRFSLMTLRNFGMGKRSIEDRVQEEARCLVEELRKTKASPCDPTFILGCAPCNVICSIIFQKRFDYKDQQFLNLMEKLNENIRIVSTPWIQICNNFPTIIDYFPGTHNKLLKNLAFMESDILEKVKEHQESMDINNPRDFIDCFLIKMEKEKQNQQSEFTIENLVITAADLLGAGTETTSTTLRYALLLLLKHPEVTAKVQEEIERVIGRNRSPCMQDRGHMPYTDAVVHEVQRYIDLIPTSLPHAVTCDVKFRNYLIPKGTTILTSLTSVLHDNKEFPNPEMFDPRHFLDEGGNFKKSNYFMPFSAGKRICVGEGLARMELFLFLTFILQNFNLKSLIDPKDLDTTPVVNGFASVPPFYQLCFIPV

Cytochrome P450 1A2 = target: T3, Cytochrome P450 1A2 (Homo sapiens, UniProt P05177); test: Inhibition of CYP1A2 in human liver microsomes preincubated for 10 mins followed by NADPH addition measured after 30 mins by LC-MS/MS analysis; assay type: ADME
T3 sequence (P05177 whole entry): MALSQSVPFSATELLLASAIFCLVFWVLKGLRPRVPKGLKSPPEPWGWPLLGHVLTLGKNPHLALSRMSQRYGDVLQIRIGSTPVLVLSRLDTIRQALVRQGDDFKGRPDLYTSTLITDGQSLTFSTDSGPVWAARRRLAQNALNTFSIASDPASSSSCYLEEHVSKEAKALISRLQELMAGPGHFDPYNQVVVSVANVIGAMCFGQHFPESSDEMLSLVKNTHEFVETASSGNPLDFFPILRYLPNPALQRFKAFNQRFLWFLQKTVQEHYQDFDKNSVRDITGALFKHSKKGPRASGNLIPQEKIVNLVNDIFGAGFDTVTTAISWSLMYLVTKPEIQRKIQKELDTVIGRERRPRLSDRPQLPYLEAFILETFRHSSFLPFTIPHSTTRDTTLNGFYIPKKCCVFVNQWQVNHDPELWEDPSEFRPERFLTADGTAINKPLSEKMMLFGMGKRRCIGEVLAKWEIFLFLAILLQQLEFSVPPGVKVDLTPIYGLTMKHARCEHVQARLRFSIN

[16] = Cmax in ICR mouse at 100 mg/kg, po; assay type: ADME, organism-based; set-up: dose 100 mg/kg, route oral; conditions: in vivo
[17] = target: T1, Protein deacetylase HDAC6; remark: listed apart in the source
Description: Inhibition of HDAC6 in human A549 cells assessed as induction of tubulin acetylation after 17 to 18 hrs by ELISA

solubility [1]: 33 µg/mL (≈ 106 µM) | CLint scaled at 1 µM [2]: 4.6 mL/min/kg | CLint scaled at 1 µM [3]: 26 mL/min/kg | clearance [4]: 108 mL/min/kg | AUC (Mus musculus [5]): 3850 µg/L/h | AUC (Mus musculus [6]): 125 µg/L/h | bioavailability [7]: ≤ 1% | half-life [8]: 0.7 h | Cmax [9]: 34 ng/mL | IC50 (Histone deacetylase 1): 19500 nM | IC50 [10]: 380 nM | IC50 (Histone deacetylase 8): 210 nM | inhibition [11]: inactive
Compound: O=C(NO)c1ccc(NC2CCN(c3ccccc3)C2=O)cc1 (stereo unspecified)

solubility [1]: 22 µg/mL (≈ 61.1 µM) | CLint scaled at 1 µM [2]: 3 mL/min/kg | CLint scaled at 1 µM [3]: 38 mL/min/kg | clearance [4]: 87 mL/min/kg | AUC (Mus musculus [12]): 1900 µg/L/h | half-life [13]: 2.1 h | AUC (Mus musculus [14]): 10500 µg/L/h | bioavailability [15]: 55% | IC50 (Cytochrome P450 3A4): > 50000 nM | IC50 (Cytochrome P450 2D6): > 50000 nM | IC50 (Cytochrome P450 2C9): > 50000 nM | IC50 (Cytochrome P450 2C19): > 50000 nM | IC50 (Cytochrome P450 1A2): > 50000 nM | Cmax [16]: 626 ng/mL | EC50 [17]: 300 nM | IC50 (Histone deacetylase 1): 74100 nM | IC50 [10]: 17 nM | IC50 (Histone deacetylase 8): 180 nM
Compound: C[C@]1(Nc2ccc(C(=O)NO)cc2)CCN(c2ccc(Cl)cc2)C1=O
